The record followed here is patent US20250388605A1, “HETEROBIFUNCTIONAL COMPOUNDS AND METHODS OF TREATING DISEASE” (Halda Therapeutics OpCo, Inc., priority 2022, published 2025).

In test [1] the target is T1, BRD4-BD1 (Homo sapiens, UniProt O60885).
T1 construct: made in house; host or cells: T7 phage grown in an E. coli host derived from the BL21 strain
The test is described as follows: Binding affinity to BRD4-BD1 (bromoKdELECT assay). As to conditions: 11-point 3-fold dilution series.

Test [2] addresses T2, BRD4-BD2 (Homo sapiens, UniProt O60885).
T2 construct: made in house; host or cells: T7 phage grown in an E. coli host derived from the BL21 strain
The test is described as follows: Binding affinity to BRD4-BD2 (bromoKdELECT assay). To be noted: 11-point 3-fold dilution series.

For `Cn1cc(-c2cc(C(C)(C)O)ccc2Oc2cccc(N3CC(N4CCN(c5ncc(C(=O)N[C@H]6C(C)(C)[C@H](Oc7ccc(C#N)c(Cl)c7)C6(C)C)cn5)CC4)C3)c2)c2cc[nH]c2c1=O` [Compound I-105], the Kd is 500 to 2500 nM in test [1] and below 50 nM in test [2].
For `CCS(=O)(=O)c1ccc(OC(CCCCN2CCN(c3ncc(C(=O)NC4C(C)(C)C(Oc5ccc(C#N)c(Cl)c5)C4(C)C)cn3)CC2)C2CC2)c(-c2cn(C)c(=O)c3[nH]ccc23)c1` (stereo not shown) [Compound I-223, N-[3-(3-chloro-4-cyano-phenoxy)-2,2,4,4-tetramethyl-cyclobutyl]-2-[4-[5-cyclopropyl-5-[4-ethylsulfonyl-2-(6-methyl-7-oxo-1H-pyrrolo[2,3-c]pyridin-4-yl)phenoxy]pentyl]piperazin-1-yl]pyrimidine-5-carboxamide], in that order: below 50 nM and below 50 nM.
For `CC(C)c1ccc(Oc2cccc(OCCN3CCN(c4ncc(C(=O)NC5C(C)(C)C(Oc6ccc(C#N)c(Cl)c6)C5(C)C)cn4)CC3)c2)c(-c2cn(C)c(=O)c3[nH]ccc23)c1` (stereo not shown) [Compound I-107, N-[3-(3-chloro-4-cyano-phenoxy)-2,2,4,4-tetramethyl-cyclobutyl]-2-[4-[2-[3-[4-isopropyl-2-(6-methyl-7-oxo-1H-pyrrolo[2,3-c]pyridin-4-yl)phenoxy]phenoxy]ethyl]piperazin-1-yl]pyrimidine-5-carboxamide], in that order: 50 to 500 nM and 50 to 500 nM.
`CCS(=O)(=O)Nc1ccc(Oc2cccc(OCCOC3CCN(c4ncc(C(=O)N[C@H]5C(C)(C)[C@H](Oc6ccc(C#N)c(Cl)c6)C5(C)C)cn4)CC3)n2)c(-c2cn(C)c(=O)c3[nH]ccc23)c1` [Compound I-47, N-((1r, 3r)-3-(3-chloro-4-cyanophenoxy)-2,2,4,4-tetra-methylcyclobutyl)-2-(4-(2-((6-(4-(ethylsulfonamido)-2-(6-methyl-7-oxo-6,7-dihydro-1H-pyrrolo[2,3-c]pyridin-4-yl)phenoxy)pyridin-2-yl)oxy)ethoxy)piperidin-1-yl)pyrimidine-5-carboxamide]: the values for the Kd in test [1] and in test [2] were above 2500 nM and below 50 nM, respectively.
With `Cn1cc(-c2cc(C(C)(C)O)ccc2Oc2cccc(OCCOC3CCN(c4ncc(C(=O)N[C@H]5C(C)(C)[C@H](Oc6ccc(C#N)c(Cl)c6)C5(C)C)cn4)CC3)c2)c2cc[nH]c2c1=O` [Compound I-56, N-((1r, 3r)-3-(3-chloro-4-cyanophenoxy)-2,2,4,4-tetramethylcyclobutyl)-2-(4-(2-(3-(4-(2-hydroxypropan-2-yl)-2-(6-methyl-7-oxo-6,7-dihydro-1H-pyrrolo[2,3-c]pyridin-4-yl)phenoxy)phenoxy)ethoxy)piperidin-1-yl)pyrimidine-5-carboxamide], the Kd in test [1] fell in the range of 500 to 2500 nM; in test [2], 50 to 500 nM.
For the compound `Cn1cc(-c2ccccc2Oc2cccc(N3CC(N4CCN(c5ncc(C(=O)N[C@H]6C(C)(C)[C@H](Oc7ccc(C#N)c(Cl)c7)C6(C)C)cn5)CC4)C3)c2)c2cc[nH]c2c1=O` [Compound I-90, N-((1r, 3r)-3-(3-chloro-4-cyanophenoxy)-2,2,4,4-tetramethylcyclobutyl)-2-(4-(1-(3-(2-(6-methyl-7-oxo-6,7-dihydro-1H-pyrrolo[2,3-c]pyridin-4-yl)phenoxy)phenyl)azetidin-3-yl)piperazin-1-yl)pyrimidine-5-carboxamide], the Kd in test [1] and in test [2] was above 2500 nM in each case.
For `CN(c1ccc(Oc2cccc(N3CC(N4CCN(c5ncc(C(=O)N[C@H]6C(C)(C)[C@H](Oc7ccc(C#N)c(Cl)c7)C6(C)C)cn5)CC4)C3)c2)c(-c2cn(C)c(=O)c3[nH]ccc23)c1)S(=O)(=O)C1CC1` [Compound I-88, N-((1r, 3r)-3-(3-chloro-4-cyanophenoxy)-2,2,4,4-tetramethylcyclobutyl)-2-(4-(1-(3-(2-(6-methyl-7-oxo-6,7-dihydro-1H-pyrrolo[2,3-c]pyridin-4-yl)-4-(N-methylcyclopropanesulfonamido)phenoxy)phenyl)azetidin-3-yl)piperazin-1-yl)pyrimidine-5-carboxamide], the Kd was in the range of 500 to 2500 nM in test [1] and 50 to 500 nM in test [2].
The like results for `Cn1cc(-c2ccccc2Oc2cccc(OCCOC3CCN(c4ncc(C(=O)N[C@H]5C(C)(C)[C@H](Oc6ccc(C#N)c(Cl)c6)C5(C)C)cn4)CC3)c2)c2ccn(C)c2c1=O` [Compound I-137] were, in that order, above 2500 nM and above 2500 nM.
For the compound `Cn1cc(-c2cc(C(C)(C)O)ccc2Oc2ccc(CCOC3CCN(c4ncc(C(=O)N[C@H]5C(C)(C)[C@H](Oc6ccc(C#N)c(Cl)c6)C5(C)C)cn4)CC3)cc2)c2cc[nH]c2c1=O` [Compound I-194], the Kd in test [1] was above 2500 nM; in test [2] it was below 50 nM.
Regarding `CCS(=O)(=O)Nc1ccc(Oc2cccc(N3CCN(C4CN(c5ncc(C(=O)N[C@H]6C(C)(C)[C@H](Oc7ccc(C#N)c(Cl)c7)C6(C)C)cn5)C4)CC3)c2)c(-c2cn(C)c(=O)c3[nH]ccc23)c1` [Compound I-126], the values for the Kd in test [1] and in test [2] were 50 to 500 nM and below 50 nM, respectively.
For `CCS(=O)(=O)Nc1ccc(Oc2cccc(OCCOCCOCCOCCOCCOC3CCN(c4ncc(C(=O)N[C@H]5C(C)(C)[C@H](Oc6ccc(C#N)c(Cl)c6)C5(C)C)cn4)CC3)c2)c(-c2cn(C)c(=O)c3[nH]ccc23)c1` [Compound I-8], the Kd in test [1] was 50 to 500 nM; in test [2] it was below 50 nM.
Regarding `Cc1ccc(CCCOC2CCN(c3ncc(C(=O)N[C@H]4C(C)(C)[C@H](Oc5ccc(C#N)c(Cl)c5)C4(C)C)cn3)CC2)cc1Oc1ccc(C(C)(C)O)cc1-c1cn(C)c(=O)c2[nH]ccc12` [Compound I-192], the Kd in test [1] is above 2500 nM; in test [2] it was 50 to 500 nM.
The like results for `Cn1cc(-c2cc(C(C)(C)O)ccc2Oc2cccc(CCOC3CCN(c4ncc(C(=O)N[C@H]5C(C)(C)[C@H](Oc6ccc(C#N)c(Cl)c6)C5(C)C)cn4)CC3)c2F)c2cc[nH]c2c1=O` [Compound I-147] were, in that order, above 2500 nM and below 50 nM.
On to `Cn1cc(-c2cc(C(C)(C)O)ccc2Oc2cccc(CCCN3CCN(c4ncc(C(=O)N[C@H]5C(C)(C)[C@H](Oc6ccc(C#N)c(Cl)c6)C5(C)C)cn4)CC3)c2)c2cc[nH]c2c1=O` [Compound I-110], for which the Kd in test [1] is 500 to 2500 nM; in test [2], below 50 nM.
For the compound `Cn1cc(-c2ccccc2Oc2cccc(N3CC(N4CCN(c5ncc(C(=O)N[C@H]6C(C)(C)[C@H](Oc7ccc(C#N)c(Cl)c7)C6(C)C)cn5)CC4)C3)c2F)c2cc[nH]c2c1=O` [Compound I-94], the figures for the Kd in test [1] and in test [2] were 500 to 2500 nM and 50 to 500 nM, respectively.
Regarding `Cn1cc(-c2ccccc2Oc2cccc(OCCN3CCN(c4ncc(C(=O)N[C@H]5C(C)(C)[C@H](Oc6ccc(C#N)c(Cl)c6)C5(C)C)cn4)CC3)c2)c2cc[nH]c2c1=O` [Compound I-98], the Kd in test [1] and in test [2] was above 2500 nM in each case.
As for `CCS(=O)(=O)Nc1ccc(Oc2cccc(OCCOC3CCN(c4ncc(C(=O)N[C@H]5C(C)(C)[C@H](Oc6ccc(C#N)c(Cl)c6)C5(C)C)cn4)CC3)c2)c(-c2cn(C)c(=O)c3c2ccn3C)c1` [Compound I-121], the Kd in test [1] and in test [2] was above 2500 nM in each case.

In general, Kd refers to the concentration at which binding is half-saturated. High values mean lower affinity, low ones higher affinity.
